Assay results taken from article PMC11882969 (Nature Communications, 2025).
Values joined by “and” are separate entries in the source; they are usually repeats but may differ in a detail not shown here. Identical values can stand only once.

How the values were obtained:
[1] = test system: Malate dehydrogenase; assay: Enzyme inhibition counter-screen, MDH; type: biochemical; settings: for MDH activity (DMSO = 100), replicate means: Rep 1-3 mean, sheet FigureS2c; for MDH inhibition: Log[7019], sheet FigS2d
Experimental: Enzyme inhibition assays to test for colloidal inhibition were performed at room temperature using CLARIOstar Plate Reader (BMG Labtech). Samples were prepared in 50 mM KPi buffer, pH 7.0 with final DMSO concentration at 1% (v/v). Compounds were incubated with 2 nM AmpC β-lactamase (AmpC) or Malate dehydrogenase (MDH) for 5 min. AmpC reactions were initiated by the addition of 50 μM CENTA chromogenic substrate (219475, Calbiochem). […] MDH reactions were initiated by the addition of 200 μM nicotinamide adenine dinucleotide (NADH) (54839, Sigma Aldrich) and 200 μM oxaloacetic acid (324427, Sigma Aldrich). The change in absorbance was monitored at 340 nm for 60 sec. Initial rates were divided by the DMSO control rate to determine % enzyme activity. Each compound was screened at 100μM in triplicate for three independent experiments, if enzyme inhibition greater than 30% was observed, 8-point half-log concentrations were performed in triplicate for three independent experiments. Data was analyzed using GraphPad Prism 9.1.

[2] = target: hCB1 (Homo sapiens, UniProt P21554); assay: Tango β-arrestin-2 recruitment, HTLA cells, CB1R; type: cell-based; set-up: expressed in transfected cells; host or cells: HTLA cells (gift of R. Axel), transient transfection
[3] = target: T1, hCB2 (Homo sapiens, UniProt P34972); assay: TRUPATH BRET2 GoA dissociation, HEK293T; type: cell-based; set-up: expressed in transfected cells; host or cells: HEK293T cells (ATCC: CRL-3216), transient co-transfection; settings: for functional response, concentration-response point (FigS7e, normalized): Log[drug], replicate columns
[4] = target: T1, hCB2; assay: Tango β-arrestin-2 recruitment, HTLA cells, CB2R; type: cell-based; set-up: expressed in transfected cells; host or cells: HEK293 cells stably expressing human CB2R (Laboratory of Ken Mackie); settings: hCB2

Sequence of hCB1 (P21554 whole entry): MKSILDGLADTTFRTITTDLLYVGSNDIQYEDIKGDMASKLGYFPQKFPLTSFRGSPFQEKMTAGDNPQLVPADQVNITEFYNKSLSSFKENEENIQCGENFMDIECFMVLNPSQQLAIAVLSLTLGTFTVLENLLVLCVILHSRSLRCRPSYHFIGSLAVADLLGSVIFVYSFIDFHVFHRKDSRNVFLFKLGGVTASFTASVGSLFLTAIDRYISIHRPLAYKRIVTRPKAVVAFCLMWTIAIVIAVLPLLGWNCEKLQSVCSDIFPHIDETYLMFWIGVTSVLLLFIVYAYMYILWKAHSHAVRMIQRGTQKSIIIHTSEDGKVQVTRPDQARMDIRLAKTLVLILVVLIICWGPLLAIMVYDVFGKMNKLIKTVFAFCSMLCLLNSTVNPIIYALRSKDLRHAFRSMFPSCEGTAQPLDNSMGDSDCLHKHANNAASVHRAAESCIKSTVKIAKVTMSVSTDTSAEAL
T1 sequence (P34972 whole entry): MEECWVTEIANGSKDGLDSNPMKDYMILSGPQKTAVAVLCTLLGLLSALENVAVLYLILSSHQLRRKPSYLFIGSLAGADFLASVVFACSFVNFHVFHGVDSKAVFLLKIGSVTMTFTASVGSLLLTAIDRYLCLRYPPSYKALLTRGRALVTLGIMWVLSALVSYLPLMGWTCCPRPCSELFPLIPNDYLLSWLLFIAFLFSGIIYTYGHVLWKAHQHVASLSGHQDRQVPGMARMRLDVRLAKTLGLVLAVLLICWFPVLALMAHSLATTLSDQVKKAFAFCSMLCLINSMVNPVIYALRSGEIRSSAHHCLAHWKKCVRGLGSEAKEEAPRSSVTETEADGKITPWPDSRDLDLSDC

Cn1nc(-c2nnc(C(C)(C)Oc3ccc(Cl)cc3)o2)c2ccccc2c1=O [‘0450]
MDH activity (DMSO = 100), replicate means [1]: 124.427 and 98.8422 and 101.682

Cc1nc(CC2CC2)oc1-c1nc(Cc2cc3c(cc2Br)OCO3)no1 [‘7019]
MDH inhibition ([1]; uM 0): 0
MDH inhibition ([1]; uM 1): 0
MDH inhibition ([1]; uM 1.49996): 13.7
MDH inhibition ([1]; uM 2): 16.9
MDH inhibition ([1]; uM -0.500011): 0
MDH inhibition ([1]; uM -1): 0

COC(=O)C(NC(=O)c1cc(C)n(-c2cccc(F)c2)n1)c1cccs1 (stereo not drawn) [‘51486]
MDH activity (DMSO = 100), replicate means [1]: 74.7583 and 87.0115 and 96.3724

COC(=O)C(NC(=O)c1cc(C)n(-c2cccc(C(F)(F)F)c2)n1)c1cccs1 (stereo not drawn) [‘60154]
Emax ([2]; HTLA, hCB1, read-out: Tango ß-arrestin recruitment Emax): 39%
response, replicate values of concentration-response curve (FigS7f) ([2]; Log[drug], M = -4.52): 20.429 and 104.707 and 123.061 and 26.6803 and 2.239 and 9.553 and 21.4993 and 25.3085 and 22.5804
response at Log[drug], M -4.52 (FigS4e) ([2]; Log[drug], M = -4.52, individual replicates): 36.2928 and 40.0634 and 37.595 and 38.9593 and 35.7322 and 28.0596 and 40.2042 and 37.7287 and 36.7316 and 48.023 and 52.3904 and 37.2251
response, replicate values of concentration-response curve (FigS7f) ([2]; Log[drug], M = -5): 29.3399 and 77.9872 and 24.9124 and 21.905 and 24.6119 and -7.914 and 14.0694 and 22.9469 and 35.7257 and 39.8379 and 27.6728 and 20.59
response at Log[drug], M -5 (FigS4e) ([2]; Log[drug], M = -5, individual replicates): 27.1965 and 33.9994 and 36.3175 and 44.6129 and 35.5189 and 28.3176 and 42.1758 and 38.9685 and 43.9354 and 46.1208 and 46.0399 and 37.7973
response, replicate values of concentration-response curve (FigS7f) ([2]; Log[drug], M = -5.52): 24.9035 and 48.7158 and 91.1283 and -6.947 and -26.9779 and -11.1207 and 46.9121 and 22.8407 and -5.557 and 12.4866 and 10.6983 and 18.3267
response at Log[drug], M -5.52 (FigS4e) ([2]; Log[drug], M = -5.52, individual replicates): 25.9735 and 23.5078 and 35.2885 and 29.1149 and 28.5437 and 33.06 and 31.1872 and 38.5344 and 34.9915 and 38.6816 and 30.9446 and 24.7853
response, replicate values of concentration-response curve (FigS7f) ([2]; Log[drug], M = -6): 35.6397 and 64.0988 and 28.3754 and -0.07579 and -2.1717 and -13.0474 and 37.7825 and -1.0184 and -20.7108 and 24.6113 and 35.271 and 22.6916
response at Log[drug], M -6 (FigS4e) ([2]; Log[drug], M = -6, individual replicates): 18.7026 and 18.3517 and 20.9876 and 21.9355 and 21.9032 and 30.9802 and 39.6213 and 23.6016 and 27.6778 and 23.7782 and 27.0192 and 15.1437
response, replicate values of concentration-response curve (FigS7f) ([2]; Log[drug], M = -6.52): 40.4184 and 15.2889 and -15.0213 and 0.4345 and 12.418 and 31.9131 and 56.5195 and 30.6699 and -7.454 and 15.9018 and 24.7629 and -25.11
response at Log[drug], M -6.52 (FigS4e) ([2]; Log[drug], M = -6.52, individual replicates): 2.7065 and 1.809 and 4.4042 and 2.4679 and 5.955 and 7.47 and 7.413 and 8.766 and 8.7 and 7.813 and 3.502 and 4.219
response, replicate values of concentration-response curve (FigS7f) ([2]; Log[drug], M = -7): 42.117 and 22.4701 and 33.4423 and -35.9633 and 6.562 and -3.7308 and 26.543 and 5.232 and -0.3284 and 16.0836 and -9.206 and -14.6626
response at Log[drug], M -7 (FigS4e) ([2]; Log[drug], M = -7, individual replicates): -0.1594 and 1.156 and 1.734 and 0.4738 and 1.35 and 4.375 and 5.525 and -1.39 and -1.9125 and 2.9502 and 2.623 and 0.09812
response, replicate values of concentration-response curve (FigS7f) ([2]; Log[drug], M = -7.52): 9.097 and 42.2455 and 14.1224 and 6.121 and -38.1578 and 8.235 and 7.554 and -8.104 and 19.7008 and -1.133 and -13.7734
response at Log[drug], M -7.52 (FigS4e) ([2]; Log[drug], M = -7.52, individual replicates): -0.8122 and -1.1619 and -0.1273 and 2.722 and 1.436 and 3.312 and 3.337 and -1.53 and 0.254 and -0.2279 and 0.3901 and 2.167
response at Log[drug], M -8 (FigS4e) ([2]; Log[drug], M = -8, individual replicates): -0.5798 and -1.11 and -0.9423 and 0.6357 and 0.4201 and 2.003 and 3.003 and -1.545 and 0.894 and 0.1363 and 0.04065 and -0.5839
response at Log[drug], M -8.52 (FigS4e) ([2]; Log[drug], M = -8.52, individual replicates): -0.1435 and -1.173 and 0.8807 and -1.256 and 3.396 and 0.2695 and 3.693 and -1.556 and 1.54 and 0.762 and 0.3566 and -1.166
response at Log[drug], M -9 (FigS4e) ([2]; Log[drug], M = -9, individual replicates): -0.3789 and 0.9257 and 0.4985 and -1.1206 and 0.6246 and 1.649 and 1.459 and 1.082 and -0.1538 and 1.773 and 1.969 and 1.368
response, replicate values of concentration-response curve (FigS7f) ([2]; Log[drug], M = -9.52): 41.217 and -5.872 and -26.7955 and -2.208 and 11.6321 and -16.1909 and 10.2609 and 13.9367 and -21.8387 and 26.5917
response at Log[drug], M -9.52 (FigS4e) ([2]; Log[drug], M = -9.52, individual replicates): -0.6308 and 0.506 and 1.398 and 0.3411 and 1.417 and 1.054 and 1.983 and 0.4806 and -1.1508 and 1.754 and 1.621 and -0.4835
response, replicate values of concentration-response curve (FigS7f) ([2]; Log[drug], M = -10): 24.3711 and 8.545 and -42.2513 and 15.4728 and -21.9203 and 6.572 and 26.8747 and -5.278 and 28.0467 and 13.9517
response at Log[drug], M -10 (FigS4e) ([2]; Log[drug], M = -10, individual replicates): -0.3624 and -0.5584 and 1.6 and 1.1356 and 0.03407 and 2.157 and 0.3066 and -2.677 and -0.1348 and -0.07275 and 2.928 and 0.8882
response at Log[drug], M -10.52 (FigS4e) ([2]; Log[drug], M = -10.52, individual replicates): -0.1972 and -0.5734 and -0.1162 and -0.5884 and 2.053 and 3.553 and 2.404 and 0.5855 and 0.2182 and 0.2755 and 0.7811 and -2.185
response at Log[drug], M -11 (FigS4e) ([2]; Log[drug], M = -11, individual replicates): -0.4863 and -0.2436 and -0.1687 and -1.788 and -0.3582 and 1.843 and 0.2942 and 1.859 and 1.201 and 2.6701 and -0.898 and 1.465
response at Log[drug], M -11.52 (FigS4e) ([2]; Log[drug], M = -11.52, individual replicates): -1.461 and -1.915 and -0.401 and -1.735 and -0.6638 and -0.2757 and -0.3004 and 0.6619 and 0.7048 and -0.5021 and 3.748 and -0.3785
response at Log[drug], M -12 (FigS4e) ([2]; Log[drug], M = -12, individual replicates): 0.3314 and 0.2511 and -0.1836 and 1.061 and -0.3335 and 0.1951 and -0.1931 and -0.7644 and -0.8837 and -0.1348 and 1.783 and -1.1281
Tango ß-arrestin recruitment pEC50 ([2]; hCB1): 6.1 [6.0 – 6.1]
EC50 ([2]; hCB1, read-out: Tango ß-arrestin recruitment EC50): 819 nM
BRET2 + GoA pEC50 [3]: 6.2 [5.6 – 6.9]
EC50 [3]: 594 nM
Emax ([3]; HEK-293T): 31%
functional response, concentration-response point (FigS7e, normalized) ([3]; M = -4.52): 18.671 and 20.9182 and 18.0789 and 16.7004
functional response, concentration-response point (FigS7e, normalized) ([3]; M = -5): 15.3625 and 13.9237 and 14.7132 and 15.4107 and 19.4252 and 16.9876 and 18.2783 and 12.2533 and 11.9429 and 13.7725 and 13.3839 and 13.0025
functional response, concentration-response point (FigS7e, normalized) ([3]; M = -5.52): 9.963 and 10.999 and 10.5318 and 12.5419 and 11.8092 and 12.1824 and 9.605 and 7.598 and 8.713 and 9.44 and 10.8654 and 8.808
functional response, concentration-response point (FigS7e, normalized) ([3]; M = -6): 5.593 and 3.808 and 3.775 and 3.462 and 6.67 and 5.511 and 6.374 and 4.542 and 6.846 and 4.398 and 2.755 and 4.192
functional response, concentration-response point (FigS7e, normalized) ([3]; M = -6.52): 2.409 and 1.324 and 2.492 and 1.478 and 2.2654 and 2.677 and 2.607 and 2.647 and 2.733 and 1.4886 and 1.807 and 1.367
functional response, concentration-response point (FigS7e, normalized) ([3]; M = -7): 1.643 and 1.038 and 0.587 and 0.6659 and 0.7726 and 0.2984 and 0.761 and 0.6332 and 1.544 and 0.7947 and 0.4011 and 0.3139
functional response, concentration-response point (FigS7e, normalized) ([3]; M = -7.52): 0.7104 and 0.5146 and 0.05736 and 0.5245 and 1.192 and 0.7027 and 0.8893 and 0.666 and 0.5954 and 0.6963 and -0.03292 and 0.3929
functional response, concentration-response point (FigS7e, normalized) ([3]; M = -8): 0.3645 and 0.5311 and 0.5376 and 0.156 and -0.2264 and 0.2284 and 0.4344 and -0.3685 and 0.1487 and 0.4213 and 0.2144 and 0.1495
functional response, concentration-response point (FigS7e, normalized) ([3]; M = -8.52): 0.07184 and -0.1728 and 0.5013 and 0.625 and -0.3869 and 0.7675 and 0.7171 and -0.3804 and 0.4049 and 0.07444 and 0.02209 and 0.4671
Emax ([4]; HTLA, read-out: Tango ß-arrestin recruitment Emax): 21%
Tango ß-arrestin recruitment pEC50 [4]: 5.5 [5.4 – 5.6]
EC50 ([4]; read-out: Tango ß-arrestin recruitment EC50): 3340 nM
